Assay results from patent US20250270202A1, “SUBSTITUTED 4-AMINOISOINDOLINE COMPOUND, PREPARATION METHOD THEREFOR, PHARMACEUTICAL COMPOSITION THEREOF, AND USE THEREOF” (SHANGHAI INSTITUTE OF MATERIA MEDICA, CHINESE ACADEMY OF …, priority 2022, published 2025).
Where two headings read alike, the source gives them in different places.

Key:
MM.1S cells = test: Effect of the compound on MM.1S cell proliferation (MTS, 7 days); format: cell-based; settings: Homo sapiens, MM1.S
Method in brief: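 MM.1S cells (20,000/well in RPMI 1640 with 10% FBS) were exposed to a 5-step compound dilution series (0.2% DMSO final) for 7 days at 37 °C, 5% CO2. MTS readout used OD490 minus OD690 after 3–4 h, and IC50 was fitted from three independent repeats.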

Mino cells = test: Inhibition of cell proliferation of Mino cells (MTS, 3 days); format: cell-based; settings: Homo sapiens, MINO
Method in brief: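 Mino cells in RPMI-1640 with 15% FBS were seeded at 8000 cells/well and treated with 5-fold compound dilutions (final DMSO 0.2%) for 3 days at 37° C. Viability was measured by MTS as OD490−OD690 after 3-4 h. IC50 was fitted from inhibition relative to DMSO and blank, in three repeat experiments.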

[1] = Mouse pharmacokinetic experiment, oral gavage; format: in vivo; settings: ICR mice, female, oral gavage 20 mg/kg, plasma
Protocol: Mouse Pharmacokinetic Experimental Scheme ICR mice, female, 18-22 g, randomly divided into groups with 4 mice per group. The test compounds were administered by oral gavage at a dose volume of 10 mL/kg. The oral solution was prepared using DMSO/PEG-400/water (5:30:65, v/v/v). Mice were fasted for 12 hours prior to the experiment with free access to water. After drug administration, they were allowed to eat uniformly at 2 hours post-dose. The test compounds (20 mg/kg) were orally administered to 4 mice. Blood samples (50 μL) were collected from the orbital vein at the following time points: 5 min, 15 min, 30 min, 1 h, 2 h, 4 h, 6 h, and 24 h. The blood was centrifuged at 12,000 rpm for 2 minutes to separate plasma, which was then stored at −20° C. for blood concentration measurement.

MV-4-11 cells = test: Inhibition of MV-4-11 cell proliferation (MTS, 7 days); format: cell-based; settings: Homo sapiens
Method in brief: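 Measured at 2,000 cells per well in IMDM with 10% FBS, five-fold compound dilutions, 0.2% DMSO final, 7 days at 37° C, 5% CO2. MTS added for 3-4 hours; signal as OD490-OD690. IC50 from three repeated experiments, each in triplicate.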

[2] = 168 h, 7 days, MTS, Table 1, read-out: MM.1S Cells Inhibition Activity IC50
[3] = 72 h, 3 days, MTS, Table 2, read-out: Mino Cells Inhibition Activity IC50
[4] = MV4-11, 168 h, 7 days, MTS, Table 3, read-out: MV-4-11 Cells Inhibition Activity IC50

SMILES	IC50 (MM.1S cells; [2])	AUC(0-t) [1]	Cmax [1]	IC50 (MV-4-11 cells; [4])	IC50 (MM.1S cells; Table 4, read-out: Inhibitory Activity of Compounds on Cell Proliferation MM.1S IC50)	IC50 (MV-4-11 cells; MV4-11, Table 4, values in μM, read-out: Inhibitory Activity of Compounds on Cell Proliferation MV-4-11 IC50)	IC50 (MV-4-11 cells; MV4-11, positive compounds, read-out: IC50 in MV-4-11 acute leukemia cells)	IC50 (Mino cells; [3])	IC50 (Mino cells; Table 4, read-out: Inhibitory Activity of Compounds on Cell Proliferation Mino IC50)
O=C1CCC(N2C(=O)c3cccc(NCc4cnc(-c5ccccc5)o4)c3C2=O)C(=O)N1 (stereo not drawn) [Example 22]	< 15 nM	> 10000 ng·h/mL	> 2000 ng/mL	< 1 µM				< 60 nM	
[2H]c1c([2H])c([2H])c(-c2ncc(CNc3cccc4c3C(=O)N(C3CCC(=O)NC3=O)C4=O)o2)c([2H])c1[2H] (stereo not drawn) [Example 45]	15 to 30 nM	> 10000 ng·h/mL	> 2000 ng/mL	< 1 µM				< 60 nM	
O=C1CCC(N2C(=O)c3cccc(NCc4cnc(-c5ccc(C(F)(F)F)cc5)s4)c3C2=O)C(=O)N1 (stereo not drawn) [Example 37]	< 15 nM	> 10000 ng·h/mL	> 2000 ng/mL	< 1 µM				< 60 nM	
O=C1CCC(N2C(=O)c3cccc(NCc4cnc(C5CCN(C(=O)C6(c7ccc(F)cc7)CCC6)CC5)o4)c3C2=O)C(=O)N1 (stereo not drawn) [Example 2]	< 15 nM			< 1 µM				< 60 nM	
Cc1ccc(-c2cnc(CNc3cccc4c3C(=O)N(C3CCC(=O)NC3=O)C4=O)o2)cc1 (stereo not drawn) [Example 24]	15 to 30 nM			< 1 µM				> 120 nM	
[2H]c1c([2H])c([2H])c(-c2ncc(CNc3cccc4c3C(=O)N(C3CCC(=O)NC3=O)C4=O)s2)c([2H])c1[2H] (stereo not drawn) [Example 46]	15 to 30 nM			1 to 20 µM				> 120 nM	
O=C1CCC(N2C(=O)c3cccc(NCc4cnc(-c5ccc(F)cc5)o4)c3C2=O)C(=O)N1 (stereo not drawn) [Example 26]	< 15 nM			< 1 µM				< 60 nM	
N#Cc1ccc(C(=O)N2CCC(c3ncc(CNc4cccc5c4C(=O)N(C4CCC(=O)NC4=O)C5=O)o3)CC2)c(F)c1 (stereo not drawn) [Example 6, 4-(4-(5-(((2-(2,6-dioxopiperidin-3-yl)-1,3-dioxoisindole-4-yl)amino)methyl)oxazol-2-yl)piperidine-1-carbonyl)-3-fluorobenzonitrile]	30 to 150 nM			1 to 20 µM				60 to 120 nM	
O=C1CCC(N2C(=O)c3cccc(NCc4cnc(-c5ccc(Cl)cn5)s4)c3C2=O)C(=O)N1 (stereo not drawn) [Example 43]	< 15 nM			< 1 µM				> 120 nM	
O=C1CCC(N2C(=O)c3cccc(NCc4cnc(C5CCN(C(=O)C67CC8CC(CC(C8)C6)C7)CC5)o4)c3C2=O)C(=O)N1 (stereo not drawn) [Example 3, 4-((2-(1-((3r,5r,7r)-adamantane-1-carbonyl)piperidin-4-yl)oxazol-5-yl)methyl)amino)-2-(2,6-dioxopiperidin-3-yl)isoindoline-1,3-dione]	< 15 nM			1 to 20 µM				< 60 nM	
O=C1CCC(N2C(=O)c3cccc(NCc4cnc(C5CCN(Cc6ccc(OC(F)(F)F)cc6)CC5)o4)c3C2=O)C(=O)N1 (stereo not drawn) [Example 14]	15 to 30 nM			< 1 µM				60 to 120 nM	
CC1(C(=O)N2CCC(c3ncc(CNc4cccc5c4C(=O)N(C4CCC(=O)NC4=O)C5=O)o3)CC2)CCC1 (stereo not drawn) [Example 1]	< 15 nM			1 to 20 µM				< 60 nM	

The next lines start with results.

IC50 (MM.1S cells; [2])	AUC(0-t) [1]	Cmax [1]	IC50 (MV-4-11 cells; [4])	IC50 (MM.1S cells; Table 4, read-out: Inhibitory Activity of Compounds on Cell Proliferation MM.1S IC50)	IC50 (MV-4-11 cells; MV4-11, Table 4, values in μM, read-out: Inhibitory Activity of Compounds on Cell Proliferation MV-4-11 IC50)	IC50 (MV-4-11 cells; MV4-11, positive compounds, read-out: IC50 in MV-4-11 acute leukemia cells)	SMILES	IC50 (Mino cells; [3])	IC50 (Mino cells; Table 4, read-out: Inhibitory Activity of Compounds on Cell Proliferation Mino IC50)
< 15 nM	> 10000 ng·h/mL	> 2000 ng/mL	< 1 µM				O=C1CCC(N2C(=O)c3cccc(NCc4cnc(-c5ccc(OC6CC6)cc5)o4)c3C2=O)C(=O)N1 (stereo not drawn) [Example 51, 4-(((2-(4-Cyclopropoxyphenyl)oxazol-5-yl)methyl)amino)-2-(2,6-Dioxopiperidin-3-yl)isoindolin-1,3-dione]	< 60 nM	
30 to 150 nM			> 20 µM				O=C1CCC(N2C(=O)c3cccc(NCc4ncc(-c5ccccc5F)o4)c3C2=O)C(=O)N1 (stereo not drawn) [Example 95, 2-(2,6-Dioxopiperidine-3-yl)-4-(((5-(2-Fluorophenyl)oxazol-2-yl)methyl)amino)isoindoline-1,3-dione]	> 120 nM	
< 15 nM			1 to 20 µM				O=C1CCC(N2C(=O)c3cccc(NCc4cnc(-c5ccccc5OC5CC5)o4)c3C2=O)C(=O)N1 (stereo not drawn) [Example 97, 4-(((2-(2-Cyclopropoxyphenyl)oxazol-5-yl)methyl)amino)-2-(2,6-Dioxopiperidine-3-yl)isoindoline-1,3-dione]	> 120 nM	
				> 30 nM	1 to 20 µM		O=CN(Cc1cnc(-c2ccc(Cl)cc2)o1)c1cccc2c1C(=O)N(C1CCC(=O)NC1=O)C2=O (stereo not drawn) [Example Ctrl-2, N-((2-(4-chlorophenyl)oxazol-5-yl)methyl)-N-(2-(2,6-dioxopiperidin-3-yl)-1,3-dioxoisoindolin-4-yl) formamide, reference compound]		> 120 nM
15 to 30 nM			1 to 20 µM				O=C1CCC(N2C(=O)c3cccc(NCc4ncc(-c5ccc(C(F)(F)F)cc5)o4)c3C2=O)C(=O)N1 (stereo not drawn) [Example 60]	> 120 nM	
> 150 nM			1 to 20 µM				CN1CCN(Cc2ncc(CNc3cccc4c3C(=O)N(C3CCC(=O)NC3=O)C4=O)o2)CC1 (stereo not drawn) [Example 91]	> 120 nM	
30 to 150 nM			> 20 µM			> 20 µM	Nc1cccc2c1CN(C1CCC(=O)NC1=O)C2=O (stereo not drawn) [Lenalidomide, reference compound]	> 120 nM	
< 15 nM			< 1 µM				O=C1CCC(N2C(=O)c3cccc(NCc4cnc(-c5ccc(O[C@H]6CCOC6)cc5)o4)c3C2=O)C(=O)N1 (stereo partly drawn) [Example 48]	< 60 nM	
< 15 nM			< 1 µM				O=C1CCC(N2C(=O)c3cccc(NCc4ncc(-c5ccc(F)cc5)o4)c3C2=O)C(=O)N1 (stereo not drawn) [Example 72, 2-(2,6-Dioxopiperidin-3-yl)-4-(((5-(4-Fluorophenyl)oxazol-2-yl)methyl)amino)isoindolin-1,3-dione]	> 120 nM	
